Test results taken from patent publication US11779602B2, “Methods of use for CAR T cells” (ENDOCYTE, INC., priority 2018, dated 2023).

Key:
MDA-MB-231 tumors = assay: CAR-T/EC17 therapy, fixed dose and dose de-escalation, in mice bearing MDA-MB-231 tumors; format: in vivo; details: 4M5.3-CAR-T 30 million cells, EC17 de-escalation
Description: The effect of EC17 dose de-escalation was investigated on the anti-tumor activity and the toxicity (body weight changes) of CAR-T therapy. Two different anti-fluorescein scFv were used for the CAR constructions (FIG. 1). The first construct of CAR contains the following domains: antiFL(FITC-E2)scFv-IgG4 hinge (CH2 (L235D, N297Q)-CH3)-CD28 TM-4-1BB-CD3z-T2A-EGFRt. The second construct of CAR contains the following domains: antiFL(FITC-4M5.3)scFv-IgG4 hinge (CH2 (L235D, N297Q)-CH3)-CD28 TM-4-1BB-CD3z-T2A-EGFRt. The nucleic acid sequence and amino acid sequence of the CAR of each construct are shown as SEQ ID NOS:1 to 4. Human T cells were isolated, activated and transduced with a lentiviral vector carrying the appropriate CAR gene. CD4+ T cells with the CAR-modification and CD8+ T cells with the CAR-modification were isolated and cultured separately in vitro for about 7 days. CD4+ CAR-T cells and CD8+ CAR-T cells were mixed at a 1:1 ratio before i.v. administration for animal studies.
The second construct 4M5.3-CAR (antiFL(FITC-4M5.3) scFv-IgG4 hinge (CH2 (L235D, N297Q)-CH3)-CD28 TM-4-1BB-CD3z-T2A-EGFRt) was also evaluated. Mice bearing MDA-MB-231 tumors (150-250 mm^3) were used for in vivo studies to evaluate 4M5.3-CAR-T cells. […]

[1] = test system: FR+ cell lines (MDA-MB-231, KB, HOS-FRα, THP1-FRβ, OV90); assay: Co-culture at 10 nM EC17, varying E/T ratios: specific lysis and Th1 cytokines; format: cell-based, human; details: 10 nM EC17, ≥1:1 E/T ratios, 48 hours
Protocol: After 24 hours of co-culture, supernatants were harvested to determine tumor cell killing. To study the kinetics of T cell activation and FR correlation in vitro (FIGS. 60A-L), co-cultures were carried out in FR+/− cell lines at varying E/T ratios (1:27, 1:9, 1:3, 1:1, 3:1) in the continuous presence of 10 nM EC17. The kinetics of tumor cell killing were quantified after 16 and 48 hours of co-culture. Meanwhile, a portion of the supernatants was taken after 44 hours of co-culture for measurement of IFNγ, IL-2 and TNFα. Using Promega's CytoTox 96® LDH assay kit, target cell killing was quantified and expressed as specific lysis (%) which was normalized to basal levels in the absence of EC17 at defined E/T ratios. The LEGENDplex™ human Th1 cytokine panel (BioLegend, San Diego, Calif.) was used to determine CAR-T cell derived cytokines.
Specific lysis (%) was quantified after 16 and 48 hours of co-culture, and Th1 cytokines (IFNγ, IL-2, TNFα) in culture media were measured after 44 hours of co-culture. […] It generally took a longer time (48 hours) and a higher E/T ratio (≥1:1) to see significant activity in the lowest FR-expressing OV90 cells (FIGS. 60A-G). The high FR-expressing KB cells responded […] to cause significant cell death (FIG. 60F). […]

`NC1=NC2N=CC(CNc3ccc(C(=O)N[C@@H](CCC(=O)NCCNC(=S)Nc4ccc(-c5c6ccc(=O)cc-6oc6cc(O)ccc56)c(C(=O)O)c4)C(=O)O)cc3)=NC2C(=O)N1` (some centres unmarked) [EC17, FA-(γ)-ethylenediamine-FITC] was tested, and the “EC17 dose dependence of anti-tumor activity and body weight loss” value (MDA-MB-231 tumors) was “dose dependent anti-tumor activity and body weight loss” and the specific lysis response [1] was “all FR+ cancer cells responded after 48 hours of co-culture”.
